The source of these data is patent publication US9440941B2, “Substituted chroman-6-yloxy-cycloalkanes and their use as pharmaceuticals” (SANOFI, priority 2013, dated 2016).

The experiment addresses T1, human NCX1 (Homo sapiens, UniProt P32418).
T1 construct: expressed in transfected cells
Briefly: Inhibition of Ca2+ influx into cells (NCX1 reverse mode), FLIPR Fluo-4 assay. Format: cell-based. The settings on record: inhibition of NCX1 in reverse mode (Ca2+ influx into cells); read-out: NCX1rv IC50. The source says:
The sodium/calcium exchanger NCX1 can transport calcium ions and sodium ions through the cell membrane. The transport is an exchange of Ca^2+ and Na^+ in two directions depending on membrane potential and ion gradients. At the first direction, named “forward mode” or “calcium export mode”, Ca^2+ is transported out of the cell and Na^+ is transported into the cell. At the other direction, named “reverse mode” or “calcium import mode”, the transport directions are vice versa. The effect of the compounds of the invention on NCX1 was determined in CHO cells stably expressing human NCX1 (gene symbol SLC8A1; cf. WO 2009/115238). The assay is based on the monitoring of intracellular Ca^2+ concentrations using a calcium-sensitive fluorescence dye which is detected by means of a FLIPR device (Fluorimetric Imaging Plate Reader, Molecular Devices).
Assay Technology—Reverse Mode
The assay is based on the monitoring of intracellular Ca^2+ concentrations using the calcium-sensitive dye Fluo-4. CHO cells expressing NCX1 were loaded with the dye by means of the acetoxymethyl ester Fluo-4 AM (Invitrogen, F14202), which is cleaved intracellularly by esterase activity to yield the charged species of free Fluo-4. After an preincubation period with the test compound, Gramicidine (Sigma, G5002) was added. Gramicidine is an ionophor for Na^+ ions mediating an increase of intracellular Na^+ ions. Consequently, intracellular Na^+ ions are exchanged against extracellular Ca^2+ ions (Ca^2+ influx, reverse mode). The intracellular elevation of Ca^2+ ions was detected by measuring the fluorescence of Fluo-4 at a wavelength of 520 nm by a FLIPR device.
Briefly, for the reverse mode transport assay 18000 cells per well were seeded into a 96 well microplate (Corning COSTAR 3904) and incubated overnight in culture medium (1× Nut Mix F12 (Ham) (Gibco, 21765-029); 10% (v/v) fetal calf serum (PAA Gold, A15-649); 450 μg/ml Geneticin (Gibco, 10131-027)). A total volume of 100 μl medium per well was used. For the preparation of the FLIPR assay, the culture medium was removed from the plates and 100 μl of dye solution (2 μM Fluo-4 AM; 0.02% (v/v) Pluronic F-127 (20%, Invitrogen, P3000MP); 0.1% (v/v) bovine albumin solution (30% (v/v), Sigma, A9205) in assay buffer (133.8 mM NaCl (Sigma, S5886); 4.7 mM KCl (Sigma, P3911); 1.25 mM MgCl2 (Merck, 1.05833.0250); 3.5 mM CaCl2 (Merck, 1.02083.0250); 5 mM glucose (Sigma, G7021); 10 mM Hepes (Sigma, H4034); 0.01% (v/v) Pluronic F-127 (5%, Sigma, P2443); 2.5 mM Probenecid (Maybridge, SB00915EB); pH 7.4)) were added into each well. The plates were incubated in the dark at room temperature for 80 min. After the incubation period, the dye solution was removed and the wells were washed with 100 μl of assay buffer. Then 80 μl of a solution of the test compound in assay buffer in different concentrations were added into the wells. The plates were incubated at 16° C. for 45 min. Meanwhile a 60 μM solution of Gramicidine in assay buffer (4° C.) was prepared and stored in the wells of a 96 well microplate (96 well microplate, polypropylene, U-shape (Greiner Bio-One, 650201)) at 4° C. until measurement was started. The fluorescence monitoring was performed at 240 measuring points with measurement intervals of 2 sec. After the fifth measuring point, 40 μl of the Gramicidine solution were added to each well of the assay plates to give a final Gramicidine concentration of 20 μM. For the determination of the IC50 values the minimal fluorescence value was subtracted from the maximal fluorescence value for all measuring points. The calculation of the IC50 values via the percentage inhibitions of Ca^2+ influx into cells (reverse mode) effected by the test compound was performed in Biost@t Speed 2.0.

Structures can show the parent of a compound that is named as a salt.

Take `Cc1ccccc1C1CCc2cc(O[C@H]3CC[C@H](NCC(=O)O)CC3)ccc2O1` (relative stereo) [compound 271]: the IC50 worked out at 800 nM.
For `COCCCNC1CCC(Oc2ccc3c(c2)CCC(c2ccccc2F)O3)CC1` (centres unmarked) [compound 215] the value was 2800 nM; for `O=C1CCC(Oc2ccc3c(c2)CCC(c2ccccc2)O3)CC1` (centres unmarked) [compound 77, 4-(2-Phenylchroman-6-yloxy)cyclohexanone], 400 nM.
Turning to `Cc1nc(CNC(=O)[C@H]2CC[C@@H](Oc3ccc4c(c3)CCC(c3ccccc3)O4)CC2)no1` (single isomer, unassigned; stereoisomer 2) [compound 96, N-(5-Methyl-[1,2,4]oxadiazol-3-ylmethyl)-[4-cis-(2-phenylchroman-6-yloxy)]-cyclohexanecarboxamide, stereoisomer 2 (2)], the IC50 amounted to 400 nM.
The value for `Fc1ccccc1C1CCc2cc(OC3CCC(NC4CCOCC4)CC3)ccc2O1` (centres unmarked) [compound 231] was 4100 nM.
For `Cc1ccccc1C1CCc2cc(OC3CCC(NCC4CCOCC4)CC3)ccc2O1` (centres unmarked) [compound 208] the value was 3000 nM.
The value for `CCn1nccc1CNC(=O)C1CCC(Oc2cc3c(cc2C)OC(c2ccccc2C)CC3)CC1` (centres unmarked) [compound 290] was 1500 nM; that for `Cc1n[nH]c(C)c1CC(=O)N[C@H]1CC[C@H](Oc2ccc3c(c2)CCC(c2ccccc2)O3)CC1` (relative stereo) [compound 43] was 100 nM.
`c1ccc(C2CCc3cc(O[C@H]4CC[C@H](NCC5CCOC5)CC4)ccc3O2)cc1` (relative stereo) [compound 61]: the IC50 came out at 300 nM.
For `Cc1cc(CN[C@H]2CC[C@H](Oc3ccc4c(c3)CCC(c3ccccc3)O4)CC2)nn1C` (stereo partly drawn) [compound 56, N-(1,5-Dimethylpyrazol-3-ylmethyl)-[trans-4-(2-phenylchroman-6-yloxy)]-cyclohexylamine] the value was 500 nM; for `Cc1noc(CCC(=O)N[C@H]2CC[C@H](Oc3ccc4c(c3)CCC(c3ccccc3F)O4)CC2)n1` (relative stereo) [compound 248], 200 nM; for `Cc1ccccc1C1CCc2cc(OC3CCC(NCCN4CCOCC4)CC3)ccc2O1` (centres unmarked) [compound 202], 1900 nM.
The value for `NCC1CCC(Oc2ccc3c(c2)CCC(c2ccccc2)O3)C1` (centres unmarked) [compound 305, hydrochloride] was 1500 nM.
For `O=C(N[C@H]1CC[C@H](Oc2ccc3c(c2)CCC(c2ccccc2F)O3)CC1)c1ccncc1F` (relative stereo) [compound 246] the value was 100 nM; for “N-Pentyl-4-(2-phenylchroman-6-yloxy)-cyclohexylamine [compound 144]”, 600 nM.
On to “4-(2-Phenylchroman-6-yloxy)-N-(2-thiomorpholin-4-ylethyl)cyclohexylamine [compound 139]”, for which the concentration for half-maximal inhibition (IC50) stood at 1000 nM.
Turning to `Cc1cc(CN(Cc2cc(C)n(C)n2)[C@H]2CC[C@H](Oc3ccc4c(c3)CCC(c3ccccc3)O4)CC2)nn1C` (stereo partly drawn) [compound 87, N,N-Bis(1,5-dimethylpyrazol-3-ylmethyl)-[trans-4-(2-phenylchroman-6-yloxy)]-cyclohexylamine], the IC50 came out at 1300 nM.
The value for `Cc1nn(C)c(C)c1CNC1CCC(Oc2ccc3c(c2)CCC(c2ccccc2)O3)CC1` (centres unmarked) [compound 104] was 800 nM; that for `O=C(Cn1cncn1)N[C@H]1CC[C@H](Oc2ccc3c(c2)CCC(c2ccccc2F)O3)CC1` (relative stereo) [compound 256] was 100 nM.
As for `Cc1c(CCC(=O)N[C@H]2CC[C@H](Oc3ccc4c(c3)CCC(c3ccccc3F)O4)CC2)cnn1C` (relative stereo) [compound 258], the IC50 was 200 nM.
For `O=C(CC(F)(F)F)N[C@H]1CC[C@H](Oc2ccc3c(c2)CCC(c2ccccc2F)O3)CC1` (relative stereo) [compound 240], the 50% inhibitory concentration (IC50) is 100 nM.
For the compound `Fc1ccccc1C1CCc2cc(OC3CCC(NC4CCCC4)CC3)ccc2O1` (centres unmarked) [compound 218], the IC50 is 2800 nM.
The value for `Cc1ccccc1C1CCc2cc(OC3CCC(NC4CCCC4)CC3)ccc2O1` (centres unmarked) [compound 204] was 1900 nM.
Turning to `c1ccc(C2CCc3cc(OC4CCC(NCCC5CCOCC5)CC4)ccc3O2)cc1` (centres unmarked) [compound 120], the IC50 is 800 nM.
With `CCn1nccc1CNC(=O)C1CCC(Oc2ccc3c(c2)CC(C)C(c2ccccc2)O3)CC1` (centres unmarked) [compound 297], the IC50 was 500 nM.
On to `O=C(NCCO)C1CCC(Oc2ccc3c(c2)CCC(c2ccccc2F)O3)CC1` (centres unmarked) [compound 173], for which the half-inhibitory concentration (IC50) was 700 nM.
For `CC1(O)CCC(Oc2ccc3c(c2)CCC(c2ccccc2)O3)CC1` (centres unmarked) [compound 163, 1-Methyl-4-(2-phenylchroman-6-yloxy)-cyclohexanol] the value was 600 nM; for `CC(C)CCNC1CCC(Oc2ccc3c(c2)CCC(c2ccccc2)O3)CC1` (centres unmarked) [compound 98], 600 nM.
Take `O=C(CCn1cncn1)N[C@H]1CC[C@H](Oc2ccc3c(c2)CCC(c2ccccc2F)O3)CC1` (relative stereo) [compound 237]: the IC50 came to 200 nM.
For `CCn1nccc1CNC(=O)C1CCC(Oc2ccc3c(c2)CCC(c2ccccc2)O3)CC1` (single isomer, unassigned; stereoisomer 1) [compound 93, N-(2-Ethyl-2H-pyrazol-3-ylmethyl)-[cis-4-(2-phenylchroman-6-yloxy)]-cyclohexanecarboxamide, stereoisomer 1 (2)] the value was 300 nM.
The value for `Cc1c(F)cccc1C1CCc2cc(OC3CCC(C(=O)NCCO)CC3)ccc2O1` (centres unmarked) [compound 262] was 200 nM; that for `CN[C@@H](C)C(=O)N[C@H]1CC[C@H](Oc2ccc3c(c2)CCC(c2ccccc2)O3)CC1` (some centres unmarked) [compound 71, hydrochloride] was 600 nM; that for `Cc1c(F)cccc1C1CCc2cc(OC3CCC(C(=O)NCC(=O)N(C)C)CC3)ccc2O1` (centres unmarked) [compound 273] was 600 nM.
The value for `c1ccc(C2CCc3cc(OC4CCC(NCc5ccoc5)CC4)ccc3O2)cc1` (centres unmarked) [compound 103] was 800 nM; that for `Fc1ccccc1C1CCc2cc(OC3CCC(NCCCOC4CCCC4)CC3)ccc2O1` (centres unmarked) [compound 229] was 6000 nM; that for `CC(C)OCCCNC1CCC(Oc2ccc3c(c2)CCC(c2ccccc2)O3)CC1` (centres unmarked) [compound 134] was 1100 nM.
With `CCn1nccc1CNC(=O)C1CCC(Oc2ccc3c(c2)CCC(c2ccccc2F)O3)CC1` (centres unmarked) [compound 183], the IC50 was found to be 10000 nM.
For `CCn1nccc1CNC(=O)C1CCC(Oc2ccc3c(c2)CCC(c2cccc(F)c2OC)O3)CC1` (centres unmarked) [compound 300] the value was 400 nM; for `CCCNC1CCC(Oc2ccc3c(c2)CCC(c2ccccc2)O3)CC1` (centres unmarked) [compound 113], 500 nM; for “N-Cyclopentyl-4-(2-phenylchroman-6-yloxy)-cyclohexylamine [compound 143]”, 800 nM.
The value for `Cc1c(F)cccc1C1CCc2cc(OC3CCC(C(=O)NC4CCCCC4O)CC3)ccc2O1` (single isomer, unassigned) [compound 287] was 100 nM; that for `O=C(NCCO)C1CCC(Oc2ccc3c(c2)CC[C@H](c2ccccc2)O3)CC1` (some centres unmarked) [compound 99] was 300 nM.
Consider `CNS(=O)(=O)CCNC(=O)C1CCC(Oc2ccc3c(c2)CCC(c2cccc(F)c2C)O3)CC1` (centres unmarked) [compound 275], for which the IC50 amounted to 400 nM.
Turning to `C[C@H]1CC[C@H](NC2CCC(Oc3ccc4c(c3)CCC(c3ccccc3)O4)CC2)CC1` (relative stereo) [compound 146], the half-maximal inhibitory concentration (IC50) was 2000 nM.

A word on the IC50: it is the concentration needed to halve the response being measured.
